Test results published in PubChem BioAssay (NCI).
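Growth conditions: 96-well plates. Treatment: test compound, 48 hours, 5 concentrations. Analysis: linear interpolation between bracketing concentrations; unreached endpoints set to highest concentration. TGI: total growth inhibition.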 Where a SMILES comes first, the peptide text is derived from it. [ ]: non-standard residue; d: D form. The star is where a group is joined. NMeAc5c = CNC1(C(=O)O)CCCC1; Boc = CC(C)(C)OC(=O)*; OBn = c1ccc(CO*)cc1

Test system: K-562 leukemia
Test: inhibition of tumour cell growth, NCI panel, 48 h

Q: Which TGI does the source give for `COc1cc(C(=O)N(C(=S)OCc2ccccn2)c2ccccc2)cc(OC)c1OC` here?
A: > 100 µM

Q: How did the TGI turn out when `CCCCCCCCCCCCCCNC(=O)CCC(NC(=O)c1ccc(N(C)Cc2cnc3nc(N)nc(N)c3n2)cc1)C(=O)NCCCCCCCCCCCCCC` (stereo not drawn) was run?
A: > 100 µM

Q: `COc1ccc(N/N=C2\CCOc3ccc(C)cc3C2=O)cc1` was tested. Which TGI did it give?
A: > 100 µM

Q: `NC(N)=N/N=C/c1c(-c2ccc(N)cc2)nc2sccn12` was tested. Which TGI did it give?
A: 66.1 µM

Q: Which TGI does the source give for `CCCCCCc1cc2cc(-c3csc(CC#N)n3)c(=O)oc2cc1O` here?
A: > 100 µM

Q: How did the TGI turn out when `COc1cc(Br)cc2cc(-c3cn4ccsc4n3)c(=O)oc12` was run?
A: > 100 µM

Q: `Nn1c(-c2ccccc2)nn(C(=O)c2ccccc2)c1=O` was tested. Which TGI did it give?
A: > 100 µM

Q: For `Nc1nc(SCCc2ccccc2)c2[nH]cnc2n1`, which TGI is on record?
A: > 100 µM

Q: Which TGI does the source give for `COc1ccc(C2CC(c3c(O)ccc4ccccc34)=NN2C(C)=O)cc1OC` (stereo not drawn) here?
A: 43.8 µM

Q: How did the TGI turn out when `COc1cc2c(c(OC)c1OC)C(=O)[C@@H]1[C@H]2N1C(N)=O` was run?
A: > 100 µM

Q: `COc1ccc2cc(NC(=O)N/N=C\c3ccc([N+](=O)[O-])cc3)ccc2c1` was tested. Which TGI did it give?
A: > 100 µM

Q: For `C[C@@H]1CC[C@]2(C(=O)O)CC[C@]3(C)C(=CC[C@@H]4[C@@]5(C)CC[C@H](O)C(C)(C)[C@@H]5CC[C@]43C)[C@@H]2[C@]1(C)O`, which TGI is on record?
A: 19.6 µM

Q: With `CN1CCc2cc(N)cc3c2C1Cc1ccc(O)c(O)c1-3` (stereo not drawn) as the molecule, how does the TGI read?
A: 85.3 µM

Q: Which TGI does the source give for `COC(=O)c1c(C)cccc1C1CN=NC12Cc1ccc(C)cc1C2=O` (stereo not drawn) here?
A: > 100 µM

Q: `CCCN(C(=O)c1ccccc1)C(C#N)c1ccc(C(C#N)N(CCC)C(=O)c2ccccc2)cc1` (stereo not drawn) was tested. Which TGI did it give?
A: > 100 µM

Q: For `COC(=O)c1ccccc1CC1Cc2ccc3c(c2C1=O)CCCC3` (stereo not drawn), which TGI is on record?
A: > 100 µM

Q: With `c1ccc(N=c2sc3ccccc3nc2Nc2ccccc2)cc1` as the molecule, how does the TGI read?
A: > 100 µM

Q: `CCOC(=O)c1csc(NC(=O)CN2CCOCC2)n1` was tested. Which TGI did it give?
A: > 100 µM

Q: With `O=C1/C(=C/c2ccccc2)N=C2Sc3c(nc[nH]c3=O)N12` as the molecule, how does the TGI read?
A: 83.5 µM

Q: Which TGI does the source give for `C=CC1(C)CCC2C(=CCC3C2(C)CC(O)C(O)C3(C)COC2OC(C(=O)O)C(O)C(O)C2O)C1` (stereo not drawn) (tested in a mixture with another compound) here?
A: > 100 µM

Q: With `N#Cc1c(N2CCCC2)ncn(-c2ccccc2)c1=O` as the molecule, how does the TGI read?
A: > 100 µM

Q: `N#CC1(C#N)N[C@@H](c2ccsc2)[C@H]2C(=O)N(c3ccccc3)C(=O)[C@H]21` was tested. Which TGI did it give?
A: > 100 µM

Q: With `O=[N+]([O-])c1ccc2c(c1)/C(=N/N=C1c3ccccc3Cc3ccccc31)c1cc([N+](=O)[O-])cc([N+](=O)[O-])c1-2` as the molecule, how does the TGI read?
A: 9.41 µM

Q: For `CN(C(=O)C(Cc1ccccc1)NC(=O)OC(C)(C)C)C1(C(=O)NC(Cc2ccccc2)C(=O)OCc2ccccc2)CCCC1` (stereo not drawn) (Boc-Phe-[NMeAc5c]-Phe-OBn; configuration not given here), which TGI is on record?
A: 97 µM

Q: Which TGI does the source give for `Cc1ccc([N+](=O)[O-])cc1NC1=NCCO1` here?
A: > 100 µM

Q: How did the TGI turn out when `O=c1ccc(-c2ccccc2)n[nH]1` was run?
A: > 100 µM

Q: How did the TGI turn out when `CCOC(=O)C(SCCO)C(C(=O)OCC)n1cnc2c(=O)[nH]c(NC(C)=O)nc21` (stereo not drawn) was run?
A: > 100 µM

Q: `C#CCNC(CS)C(=O)O` (stereo not drawn) was tested. Which TGI did it give?
A: > 100 µM

Q: Which TGI does the source give for `Cc1ccc(N=NC(=Nc2ccccc2)c2ccc(N(CCC#N)CCC#N)cc2)cc1` here?
A: > 100 µM

Q: How did the TGI turn out when `Cc1ccccc1C(=O)N1CCc2c([nH]c3ccccc23)C1` was run?
A: 62.5 µM

Q: With `NC(=O)NCCCC(NC(=O)OCCCCn1ccc(=O)[nH]c1=O)C(=O)O` (stereo not drawn) as the molecule, how does the TGI read?
A: > 100 µM

Q: Which TGI does the source give for `COc1ccc2c(c1)/C(=C/CCN(C)C)c1ccccc1S2` here?
A: > 100 µM

Q: How did the TGI turn out when `NS(=O)(=O)c1ccc2c(c1)OCCOCCOCCOCCO2` was run?
A: > 100 µM

Q: For `CCOC(=O)/C=C/CC(C)(C)CCOC(C)=O`, which TGI is on record?
A: > 10 µM

Q: How did the TGI turn out when `COC(=O)C([C@H](NC1(c2ccccc2)c2ccccc2-c2ccccc21)C(=O)OC)N(NC(=O)OCc1ccccc1)C(=O)OCc1ccccc1` (mixture of isomers) was run?
A: > 100 µM

Test system: HCC-2998 colon
Test: inhibition of tumour cell growth, NCI panel, 48 h

Q: `CCCCCCCCCCCCCCNC(=O)CCC(NC(=O)c1ccc(N(C)Cc2cnc3nc(N)nc(N)c3n2)cc1)C(=O)NCCCCCCCCCCCCCC` (stereo not drawn) was tested. Which TGI did it give?
A: 19.8 µM

Q: For `COc1ccc(N/N=C2\CCOc3ccc(C)cc3C2=O)cc1`, which TGI is on record?
A: 97.5 µM

Q: For `CCCCCCc1cc2cc(-c3csc(CC#N)n3)c(=O)oc2cc1O`, which TGI is on record?
A: > 100 µM

Q: `COc1cc(Br)cc2cc(-c3cn4ccsc4n3)c(=O)oc12` was tested. Which TGI did it give?
A: 24 µM

Q: How did the TGI turn out when `Nn1c(-c2ccccc2)nn(C(=O)c2ccccc2)c1=O` was run?
A: > 100 µM

Q: `O=c1[nH]c(Nc2cccc(CC(F)(F)F)c2)nc2nc[nH]c12` was tested. Which TGI did it give?
A: > 100 µM

Q: With `Nc1nc(SCCc2ccccc2)c2[nH]cnc2n1` as the molecule, how does the TGI read?
A: 93.8 µM

Q: Which TGI does the source give for `COc1ccc(C2CC(c3c(O)ccc4ccccc34)=NN2C(C)=O)cc1OC` (stereo not drawn) here?
A: 54.3 µM

Q: How did the TGI turn out when `COc1cc2c(c(OC)c1OC)C(=O)[C@@H]1[C@H]2N1C(N)=O` was run?
A: > 100 µM

Q: How did the TGI turn out when `COc1ccc2cc(NC(=O)N/N=C\c3ccc([N+](=O)[O-])cc3)ccc2c1` was run?
A: > 100 µM

Q: For `C[C@@H]1CC[C@]2(C(=O)O)CC[C@]3(C)C(=CC[C@@H]4[C@@]5(C)CC[C@H](O)C(C)(C)[C@@H]5CC[C@]43C)[C@@H]2[C@]1(C)O`, which TGI is on record?
A: 29.2 µM

Q: `CN1CCc2cc(N)cc3c2C1Cc1ccc(O)c(O)c1-3` (stereo not drawn) was tested. Which TGI did it give?
A: 33.1 µM

Q: Which TGI does the source give for `O=C1CCCSC(=O)N1Cc1ccccc1` here?
A: > 100 µM

Q: `COC(=O)c1c(C)cccc1C1CN=NC12Cc1ccc(C)cc1C2=O` (stereo not drawn) was tested. Which TGI did it give?
A: > 100 µM

Q: Which TGI does the source give for `CCCN(C(=O)c1ccccc1)C(C#N)c1ccc(C(C#N)N(CCC)C(=O)c2ccccc2)cc1` (stereo not drawn) here?
A: > 100 µM

Q: For `COC(=O)c1ccccc1CC1Cc2ccc3c(c2C1=O)CCCC3` (stereo not drawn), which TGI is on record?
A: > 100 µM

Q: `c1ccc(N=c2sc3ccccc3nc2Nc2ccccc2)cc1` was tested. Which TGI did it give?
A: > 100 µM

Q: `CCOC(=O)c1csc(NC(=O)CN2CCOCC2)n1` was tested. Which TGI did it give?
A: > 100 µM
